US6586424B2, “Tyrosine kinase inhibitors” (Merck & Co., Inc., priority 1999, dated 2003)
Where a name gives a salt, the structure may show the parent alone.

SMILES | melting point
Brc1ccc(Nc2ncc(-c3ccccc3)s2)nc1 (as salt: HBr) [Compound 4-4, (5-Bromo-pyridin-2-yl)-(5-phenyl-thiazol-2-yl)-amine] | > 220 °C
COC(=O)c1cccc(Nc2ncc(-c3ccccc3)s2)n1 [Compound 4-6, 6-(5-Phenyl-thiazol-2-ylamino)-pyridine-2-carboxylic Acid Methyl Ester] | 231 to 232 °C
CCc1cnc(Nc2ccccn2)s1 [Compound 4-18, (5-Ethyl-thiazol-2-yl)-pyridin-2-yl-amine] | 113 °C
Cc1ccccc1-c1cnc(Nc2ccccn2)s1 [Compound 5-6, Pyridin-2-yl-(5-o-tolyl-thiazol-2-yl)-amine] | 155 to 160 °C
Cc1cccc(-c2cnc(Nc3ccccn3)s2)c1 [Compound 5-7, Pyridin-2-yl-(5-m-tolyl-thiazol-2-yl)-amine] | 204 to 205 °C
c1ccc(Nc2ncc(-c3cccc4ccccc34)s2)nc1 [Compound 5-9, (5-Naphthalen-1-yl-thiazol-2-yl)-pyridin-2-yl-amine] | 223.5 to 226 °C
FC(F)(F)c1ccccc1-c1cnc(Nc2ccccn2)s1 [Compound 5-14, Pyridin-2-yl[5-(2-trifluoromethyl-phenyl)-thiazol-2-yl]-amine] | 195 to 203 °C
FC(F)(F)c1cccc(-c2cnc(Nc3ccccn3)s2)c1 [Compound 5-15, Pyridin-2-yl-[5-(3-trifluoromethyl-phenyl)-thiazol-2-yl]-amine] | 242 to 244 °C
FC(F)(F)c1ccc(-c2cnc(Nc3ccccn3)s2)cc1 [Compound 5-16, Pyridin-2-yl-[5-(4-trifluoromethyl-phenyl)-thiazol-2-yl]-amine] | > 250 °C
Fc1ccccc1-c1cnc(Nc2ccccn2)s1 [Compound 5-18, [5-(2-Fluoro-phenyl)-thiazol-2-yl]-pyridin-2-yl-amine] | 227 to 228 °C
Fc1cccc(-c2cnc(Nc3ccccn3)s2)c1 [Compound 5-19, [5-(3-Fluoro-phenyl)-thiazol-2-yl]-pyridin-2-yl-amine] | > 250 °C
Fc1ccc(-c2cnc(Nc3ccccn3)s2)cc1 [Compound 5-20, [5-(4-Fluoro-phenyl)-thiazol-2-yl]-pyridin-2-yl-amine] | 239 to 240 °C
Clc1ccccc1-c1cnc(Nc2ccccn2)s1 [Compound 5-21, [5-(2-Chloro-phenyl)-thiazol-2-yl]-pyridin-2-yl-amine] | 213 to 215 °C
Clc1ccc(-c2cnc(Nc3ccccn3)s2)cc1 [Compound 5-23, [5-(4-Chloro-phenyl)-thiazol-2-yl]-pyridin-2-yl-amine] | > 250 °C
Clc1ccc(-c2cnc(Nc3ccccn3)s2)cc1Cl [Compound 5-24, [5-(3,4-dichloro-phenyl)-thiazol-2-yl]-pyridin-2-yl-amine] | > 250 °C
